Results on 29 compounds are retold here after US20240025856A1, “1,2,3,4-TETRAHYDROQUINOLINE DERIVATIVES AS INHIBITORS OF THE YAP/TAZ-TEAD ACTIVATION FOR TREATING CANCER” (KATHOLIEKE UNIVERSITEIT LEUVEN, priority 2020, published 2024).

The subject of the test is YAP/TAZ-TEAD transcription. Description: Reporter gene assay for measuring the inhibition of YAP/TAZ-TEAD transcription (TEAD-responsive element luciferase reporter in Hek293T cells). Type of test: cell-based. As to conditions: Homo sapiens, HEK-293T, 24 h, Hek293T cells transiently transfected with TEAD-responsive element luciferase reporter; 24 hours incubation. Put shortly:
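Hek293T cells transiently transfected with a TEAD-responsive element luciferase reporter, plated onto pre-diluted compounds and incubated 24 h at 37 °C/5% CO2. Luminescence read after SteadyLite addition; % inhibition from RLU relative to vehicle (0%) and a positive control inhibitor (100%), giving IC50.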
`C=CC(=O)NCC1Cc2ccccc2N(c2cccc(-c3ccccc3)c2)C1` (centres unmarked) [compound 093, N-((1-([1,1′-biphenyl]-3-yl)-1,2,3,4-tetrahydroquinolin-3-yl)methyl)acrylamide] showed an IC50 of over 20 µM.
`C=CC(=O)NCC1Cc2ccccc2N(c2ccc(C(F)(F)F)nc2)C1` (centres unmarked) [compound 094, N-((1-(6-(trifluoromethyl)pyridin-3-yl)-1,2,3,4-tetrahydroquinolin-3-yl)methyl)acrylamide] displayed a half-maximal inhibitory concentration (IC50) of under 1 µM.
To `C=CC(=O)NCC1Cc2ccccc2N(c2ccc(C(F)(F)F)cn2)C1` (centres unmarked) [compound 095] belongs under 1 µM; to `C=CC(=O)NCC1Cc2ccccc2N(c2ccnc(C(F)(F)F)c2)C1` (centres unmarked) [compound 096, N-((1-(2-(trifluoromethyl)pyridin-4-yl)-1,2,3,4-tetrahydroquinolin-3-yl)methyl)acrylamide], under 1 µM.
`C=CC(=O)NCC1Cc2ccccc2N(c2ccc(F)cc2)C1` (centres unmarked) [compound 097, N-((1-(4-fluorophenyl)-1,2,3,4-tetrahydroquinolin-3-yl)methyl)acrylamide] showed an IC50 of under 1 µM.
Next, `CCC(=O)NCC1Cc2ccccc2N(c2ccc(C(F)(F)F)cc2)C1` (centres unmarked) [compound 098, N-((1-(4-(trifluoromethyl)phenyl)-1,2,3,4-tetrahydroquinolin-3-yl)methyl)propionamide]: under 1 µM; `CC(C)=CC(=O)NCC1Cc2ccccc2N(c2ccc(C(F)(F)F)cc2)C1` (centres unmarked) [compound 099, 3-methyl-N-((1-(4-(trifluoromethyl)phenyl)-1,2,3,4-tetrahydroquinolin-3-yl)methyl)but-2-enamide]: 1 to 20 µM; `C=CC(=O)NCC1Cc2ccccc2N(c2ccc(C(=O)NC)cc2)C1` (centres unmarked) [compound 100, 4-(3-(acrylamidomethyl)-3,4-dihydroquinolin-1(2H)-yl)—N-methylbenzamide]: over 20 µM.
To `C=CC(=O)NCC1Cc2ccccc2N(c2ccc(F)c(F)c2)C1` (centres unmarked) [compound 101, N-((1-(3,4-difluorophenyl)-1,2,3,4-tetrahydroquinolin-3-yl)methyl)acrylamide] belongs under 1 µM; to `C=CC(=O)NCC1Cc2ccccc2N(c2ccc(F)cc2F)C1` (centres unmarked) [compound 102, N-((1-(2,4-difluorophenyl)-1,2,3,4-tetrahydroquinolin-3-yl)methyl)acrylamide], under 1 µM.
Next, `C=CC(=O)NCC1Cc2ccccc2N(c2ccc3cc[nH]c3c2)C1` (centres unmarked) [compound 104, N-((1-(1H-indol-6-yl)-1,2,3,4-tetrahydroquinolin-3-yl)methyl)acrylamide]: under 1 µM; `C=CC(=O)NCC1Cc2ccccc2N(c2ccc(C(F)F)cc2)C1` (centres unmarked) [compound 105, N-((1-(4-(difluoromethyl)phenyl)-1,2,3,4-tetrahydroquinolin-3-yl)methyl)acrylamide]: under 1 µM; `C=CC(=O)NCC1Cc2ccccc2N(c2ccc(OC(F)(F)F)cc2)C1` (centres unmarked) [compound 106, N-((1-(4-(trifluoromethoxy)phenyl)-1,2,3,4-tetrahydroquinolin-3-yl)methyl)acrylamide]: under 1 µM.
Turning to `C=CC(=O)NCC1Cc2ccccc2N(c2ccc(OC(F)F)cc2)C1` (centres unmarked) [compound 107, N-((1-(4-(difluoromethoxy)phenyl)-1,2,3,4-tetrahydroquinolin-3-yl)methyl)acrylamide], the IC50 is under 1 µM.
To `C=CC(=O)NCC1Cc2ccccc2N(c2cccc(F)c2)C1` (centres unmarked) [compound 108, N-((1-(3-fluorophenyl)-1,2,3,4-tetrahydroquinolin-3-yl)methyl)acrylamide] belongs under 1 µM.
Consider `C=CC(=O)NCC1Cc2ccccc2N(c2cccc(F)c2F)C1` (centres unmarked) [compound 109, N-((1-(2,3-difluorophenyl)-1,2,3,4-tetrahydroquinolin-3-yl)methyl)acrylamide], for which the IC50 was under 1 µM.
Next, `C=CC(=O)NCC1Cc2ccccc2N(c2cc(F)ccc2F)C1` (centres unmarked) [compound 110, N-((1-(2,5-difluorophenyl)-1,2,3,4-tetrahydroquinolin-3-yl)methyl)acrylamide]: under 1 µM; `C=CC(=O)NCC1Cc2ccccc2N(c2cc(F)cc(F)c2)C1` (centres unmarked) [compound 111, N-((1-(3,5-difluorophenyl)-1,2,3,4-tetrahydroquinolin-3-yl)methyl)acrylamide]: under 1 µM.
To `C=CC(=O)NCC1Cc2ccccc2N(c2ccc(C(F)(F)F)c(F)c2)C1` (centres unmarked) [compound 112, N-((1-(3-fluoro-4-(trifluoromethyl)phenyl)-1,2,3,4-tetrahydroquinolin-3-yl)methyl)acrylamide] belongs under 1 µM.
To `C=CC(=O)NCC1Cc2ccccc2N(c2ccc(SC(F)(F)F)cc2)C1` (centres unmarked) [compound 114, N-((1-(4-((trifluoromethyl)thio)phenyl)-1,2,3,4-tetrahydroquinolin-3-yl)methyl)acrylamide] belongs under 1 µM; to `C=CC(=O)NCC1Cc2ccccc2N(c2cnc(C(F)(F)F)nc2)C1` (centres unmarked) [compound 115, N-((1-(2-(trifluoromethyl)pyrimidin-5-yl)-1,2,3,4-tetrahydroquinolin-3-yl)methyl)acrylamide], under 1 µM.
For the compound `C=CC(=O)NCC1Cc2ccccc2N(c2ccc(C)cc2C)C1` (centres unmarked) [compound 116, N-((1-(2,4-dimethylphenyl)-1,2,3,4-tetrahydroquinolin-3-yl)methyl)acrylamide], the IC50 was under 1 µM.
`C=CC(=O)NCC1Cc2ccccc2N(c2ccc(S(F)(F)(F)(F)F)cc2)C1` (centres unmarked) [compound 117, N-((1-(4-(pentafluoro-λ^6-sulfaneyl)phenyl)-1,2,3,4-tetrahydroquinolin-3-yl)methyl)acrylamide] displayed an IC50 of under 1 µM.
Compound `C=CC(=O)NCC1Cc2ccccc2N(C2CCCCC2)C1` (centres unmarked) [compound 118, N-((1-cyclohexyl-1,2,3,4-tetrahydroquinolin-3-yl)methyl)acrylamide] returned an IC50 of under 1 µM.
On to `C#CC(=O)NCC1Cc2ccccc2N(c2ccc(C(F)(F)F)cc2)C1` (centres unmarked) [compound 119, N-((1-(4-(trifluoromethyl)phenyl)-1,2,3,4-tetrahydroquinolin-3-yl)methyl)propiolamide], for which the IC50 was under 1 µM.
To `CN(C)C/C=C/C(=O)NCC1Cc2ccccc2N(c2ccc(C(F)(F)F)cc2)C1` (centres unmarked) [compound 120, (E)-4-(dimethylamino)-N-((1-(4-(trifluoromethyl)phenyl)-1,2,3,4-tetrahydroquinolin-3-yl)methyl)but-2-enamide] belongs under 1 µM.
To `CS(=O)(=O)NCC1Cc2ccccc2N(c2ccc(C(F)(F)F)cc2)C1` (centres unmarked) [compound 121, N-((1-(4-(trifluoromethyl)phenyl)-1,2,3,4-tetrahydroquinolin-3-yl)methyl)methanesulfonamide] belongs under 1 µM; to `C=CS(=O)(=O)NCC1Cc2ccccc2N(c2ccc(C(F)(F)F)cc2)C1` (centres unmarked) [compound 122, N-((1-(4-(trifluoromethyl)phenyl)-1,2,3,4-tetrahydroquinolin-3-yl)methyl)ethenesulfonamide], under 1 µM; to `O=S1(=O)CCN1CC1Cc2ccccc2N(c2ccc(C(F)(F)F)cc2)C1` (centres unmarked) [compound 123, 2-((1-(4-(trifluoromethyl)phenyl)-1,2,3,4-tetrahydroquinolin-3-yl)methyl)-1,2-thiazetidine-1,1-dioxide], under 1 µM.
